In paper PMC7822874, “Chemoprotective antimalarials identified through quantitative high-throughput screening of Plasmodium blood and liver stage parasites” (Scientific Reports, 2021):
Where two headings read alike, the source gives them in different places.

Key:
[1] = system: luciferase-expressing P. berghei liver stage parasites in HepG2 cells; assay: Inhibition of liver-stage development assay (ILSDA), Method 2 (WRAIR, 96-well); assay type: cell-based, Plasmodium berghei; conditions: for AC50: Plasmodium berghei; for Max Resp (signal direction of the dose response): Method 2, Decrease = decreasing P. berghei viability with dose, Increase = increasing signal, Inactive = no dose response
[2] = system: P. berghei-ANKA-GFP-LucCON liver stage parasites in HepG2-A16-CD81EGFP cells; assay: P. berghei liver stage Pb-Luc assay, Method 1 (UCSD, 1536-well); as to Pb-Luc signal, 1 uM, repeat 1: reference of the scale not given here; as to Pb-Luc signal, 1 uM, repeat 2: reference of the scale not given here; as to Pb-Luc signal, 1 uM, repeat 3: reference of the scale not given here; as to Pb-Luc signal, 3 uM, repeat 1: reference of the scale not given here; as to Pb-Luc signal, 3 uM, repeat 2: reference of the scale not given here; as to Pb-Luc signal, 3 uM, repeat 3: reference of the scale not given here; assay type: cell-based, Plasmodium berghei; conditions: for Max Resp (signal direction of the dose response) / AC50 / Log AC50 (M): Method 1; for Max Resp (signal direction of the dose response): Decrease = decreasing P. berghei viability with dose, Increase = increasing signal, Inactive = no dose response; for activity at 1 µM / activity at 3 µM: 48 h, average of 2 wells, 1536-well plate; for activity at 1 µM: nominal 1 uM (10 mM stock), […] for 15 mM, 1.2 uM for 12 mM, 2 uM for 20 mM stock; for activity at 3 µM: nominal 3 uM (10 mM stock), 4.5 uM for 15 mM, 3.6 uM for 12 mM, 6 uM for 20 mM stock
[3] = system: HepG2-A16-CD81EGFP cells
[4] = in vitro; conditions: human
[5] = system: Plasmodium falciparum Dd2 asexual blood stage parasites; assay: microbe, parasite or virus in culture; parameters: species or system Plasmodium falciparum Dd2 in human erythrocytes; single determination (one 11-point concentration-response curve); conditions: Plasmodium falciparum, DD2, Erythrocyte, 72 h
[6] = P. berghei liver stage, Method 2, dose response
[7] = HepG2, P. berghei liver stage, Method 2, dose response, read-out: AC50
[8] = HepG2, P. berghei liver stage, Method 2, dose response, read-out: Log AC50 (converted)
[9] = Plasmodium berghei, repeat 1, read-out: Pb-Luc signal, 1 uM, repeat 1
[10] = Plasmodium berghei, repeat 2, read-out: Pb-Luc signal, 1 uM, repeat 2
[11] = Plasmodium berghei, repeat 3, read-out: Pb-Luc signal, 1 uM, repeat 3
[12] = Plasmodium berghei, repeat 1, read-out: Pb-Luc signal, 3 uM, repeat 1
[13] = Plasmodium berghei, repeat 2, read-out: Pb-Luc signal, 3 uM, repeat 2
[14] = Plasmodium berghei, repeat 3, read-out: Pb-Luc signal, 3 uM, repeat 3
[15] = Plasmodium berghei, Hill fit, 50% of maximum activity response, read-out: AC50
[16] = Plasmodium berghei, log10 of molar AC50 from Hill fit, read-out: Log AC50 (converted)
[17] = nominal 1 uM (10 mM stock), […] for 15 mM, 1.2 uM for 12 mM, 2 uM for 20 mM stock, average of 2 wells, repeat 2
[18] = nominal 3 uM (10 mM stock), 4.5 uM for 15 mM, 3.6 uM for 12 mM, 6 uM for 20 mM stock, average of 2 wells, repeat 2
[19] = HepG2-A16-CD81EGFP cells, uninfected
[20] = HepG2, Method 2, Hill fit, 50% of maximum activity response, read-out: AC50
[21] = HepG2, Method 2, log10 of molar AC50 from Hill fit, read-out: Log AC50 (converted)
[22] = Hill fit, 50% of maximum activity response, read-out: AC50
[23] = log10 of molar AC50 from Hill fit

| Structure (SMILES) | Activity direction (Decrease / Inactive) [1, 6] | Max Resp (signal direction of the dose response) [2] | activity at 1 µM [2, 9] [%] | activity at 1 µM [2, 10] [%] | activity at 1 µM [2, 11] [%] | activity at 3 µM [2, 12] [%] | activity at 3 µM [2, 13] [%] | activity at 3 µM [2, 14] [%] | viability at 48 h, 3 µM [4] [%] | AC50 ([5]; read-out: AC50) [nM] | AC50 [2, 15] [nM] | AC50 [2, 16] [nM] | HepG2 viability signal, 1 uM, repeat 2 [3, 17] [%] | HepG2 viability signal, 3 uM, repeat 2 [3, 18] [%] | viability at 48 h, 1 µM [4, 19] [%] | viability at 48 h, 3 µM [4, 19] [%] | Max Resp (signal direction of the dose response) [1] | further results |
| --- | --- | --- | --- | --- | --- | --- | --- | --- | --- | --- | --- | --- | --- | --- | --- | --- | --- | --- |
| COc1cc2c(cc1Oc1cccc(N(C)C)c1)NC(=O)C21CCN(c2cnccn2)CC1 [NCGC00416778-01] | Decrease | Inactive | 86.6 | 95.1 | 107 | 35 | 40 | 53.9 | 89.7 | 1500 | – | – | – | – | – | – | – | AC50 [1, 7]: 1000 nM; AC50 [1, 8]: 1000 nM; HepG2 viability signal, 1 uM, repeat 2 ([3]; human, 48 h, 1 µM): 94.98%; HepG2 viability signal, 3 uM, repeat 2 ([3]; human, 48 h, 3 µM): 87.34%; viability at 48 h, 1 µM [4]: 101% |
| COc1ccc(Nc2cnc3ccc(-c4ccc(OC)c(OC)c4)nn23)cc1 [NCGC00412624-01] | Inactive | Decrease | 3.08 | 5.39 | 3.47 | -0.46 | -0.86 | -0.14 | – | 1720 | 1410 | 1410 | 100.79 | 112.23 | 101 | 109 | – | – |
| CCC(CC)c1cc([C@H]2CN3CC[C@H]2C[C@@H]3CN[S+](=O)([O-])c2cccs2)nc(-c2ccncc2)n1 [NCGC00396883-01] | – | Decrease | 64 | 69 | 109 | 37.8 | 32.5 | 35.3 | 102 | 2370 | 501 | 501 | – | – | – | – | Decrease | AC50 [1, 20]: 631 nM; AC50 [1, 21]: 631 nM; AC50 [2, 22]: 708 nM; Log AC50 (M) [2, 23]: -6.150 M; HepG2 viability signal, 1 uM, repeat 2 ([3]; human, 48 h, 1 µM): 98.83%; HepG2 viability signal, 3 uM, repeat 2 ([3]; human, 48 h, 3 µM): 99.98%; viability at 48 h, 1 µM [4]: 99.7% |
| O=C(Nc1ccc2c(N3CCOCC3)ncnc2c1)c1cccc(Br)c1 [NCGC00425561-01] | – | – | 70.5 | 72.5 | 53.9 | 30.4 | 40.5 | 12.4 | – | 4220 | 1410 | 1410 | 93.24 | 58.93 | 97.9 | 39.6 | – | Activity direction (Decrease / Inactive) [1]: Decrease; AC50 ([1]; HepG2): 31600 nM; AC50 ([1]; HepG2, read-out: Log AC50 (converted)): 31600 nM |
| CCC(CC)c1cc([C@H]2CN3CC[C@H]2C[C@@H]3CNC(=O)COc2ccccc2)nc(-c2ccncc2)n1 [NCGC00420983-01] | Inactive | Decrease | 55.4 | 47 | 38 | 33.3 | 38.2 | 41 | 101 | 1500 | – | – | 97.05 | – | 102 | 101 | – | – |
| COc1ccc(-c2ccc3ncc(Nc4ccc(C(N)=O)cc4)n3n2)cc1OC [NCGC00412552-01] | – | Inactive | 38.8 | 64.3 | 74.5 | 2.42 | 48.9 | 27.1 | – | 2430 | – | – | 102.54 | 100.89 | 100 | 105 | Inactive | – |
| COc1ccc(-n2nc(C)c([C@@H]3C=C[C@@H](NCc4cccc(Cl)c4)C3)c2C)cc1 [NCGC00391691-01] | – | Decrease | 41.3 | 40.5 | 39.6 | 11.5 | 13.5 | 12.4 | – | 1370 | 1580 | 1580 | 103.31 | 96.15 | 104 | 102 | Decrease | AC50 [1, 20]: 1260 nM; AC50 [1, 21]: 1260 nM; AC50 [2, 22]: 2000 nM; Log AC50 (M) [2, 23]: -5.700 M |
| Cc1ccccc1[S+](=O)([O-])N1CCCC(CCC(=O)NCCN(C)C2CCCCC2)C1 (stereo not drawn) [NCGC00425745-01] | Decrease | – | 72 | 61 | 64.9 | 42 | 57.8 | 54.8 | – | – | 1780 | 1780 | – | – | 112 | 109 | – | AC50 [1, 7]: 562 nM; AC50 [1, 8]: 562 nM; HepG2 viability signal, 1 uM, repeat 2 [3]: 108.18%; HepG2 viability signal, 3 uM, repeat 2 [3]: 103.93%; AC50 [5]: 8410 nM |
